The values below come from ChEMBL document CHEMBL1201862, “PubChem BioAssay data set” (2004).

Structures are written as SMILES.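 These data come from cells grown in 96-well plates and exposed to compound for 48 hours at five concentrations. GI50 = concentration required for 50% inhibition of growth.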 The source made the active and inactive calls. Rule as the data show it: active = GI50 up to about 1.1 µM and inactive = higher.

Holding throughout (assay): NCI-60 cell line screen, 48 h
The subject of assay [1] is A498.
Assay [2] relates to COLO 205.
The test system of assay [3] is SNB-19.
Assay [4] concerns LOX IMVI.
For assay [5], the system named is PC-3.
Assay [6] concerns ACHN.
Assay [7] concerns HCC 2998.
Assay [8] relates to NCI-H460.
For assay [9], the system named is A549.
Assay [10] concerns MOLT-4.
In assay [11] the test system is MDA-MB-231.
For assay [12], the system named is SK-OV-3.
Assay [13] deals with T47D.
Assay [14] relates to HCT-15.
Assay [15] has as its system HOP-92.
In assay [16] the test system is Hs-578T.
Assay [17] concerns OVCAR-5.
Assay [18] relates to HCT-116.
In assay [19] the test system is IGROV-1.
In assay [20] the test system is SNB-75.

With `Cc1c(Cc2ccccc2)n(COCCCO)c(=O)[nH]c1=O`, the GI50 in [1], in assay [2], in [3], in assay [4], in [5] and in assay [6] was > 100 µM (inactive) throughout. The GI50 in assay [7], in assay [8], in [9], in [10], in assay [11] and in assay [12] was > 100 µM (inactive) in each case. Further, the GI50 in assay [13] was > 100 µM (inactive); in [14], above 100 µM; in [15], > 100 µM (inactive); in assay [16] it was > 100 µM (inactive); in assay [17] it was > 100 µM (inactive); in assay [18] it was > 100 µM (inactive). For the same compound, the GI50 in [19] and in assay [20] was > 100 µM (inactive) in each case.
`O=C1OCC=C1COC1OC(CO)C(O)C(O)C1O` (stereo not given): the GI50 in assay [1], in [2], in assay [3], in [4], in assay [5] and in [6] was > 100 µM (inactive) throughout. The GI50 in assay [7], in assay [8], in assay [9], in [10], in [11] and in [12] was > 100 µM (inactive) each time. For the same compound, the GI50 was > 100 µM (inactive) in assay [13]; above 100 µM in assay [14]; > 100 µM (inactive) in [15]; > 100 µM (inactive) in assay [16]; > 100 µM (inactive) in assay [17]; > 100 µM (inactive) in assay [18]. For the same compound, the GI50 in assay [19] and in [20] was > 100 µM (inactive) in each case.
With `COc1ccc(-c2c(-c3ccccc3)c(C)c3ccccn23)cc1`, the GI50 in assay [1] was > 100 µM (inactive); in assay [2] it was 80.4 µM (inactive); in assay [3] it was > 100 µM (inactive); in assay [4], 83.6 µM (inactive); in [5], 84.3 µM (inactive); in [6] it was > 100 µM (inactive). For the same compound, the GI50 in [7] was > 100 µM (inactive); in assay [8], 59.2 µM (inactive); in assay [9], 87.3 µM (inactive); in assay [10], 59.6 µM (inactive); in [11], > 100 µM (inactive); in [12], > 100 µM (inactive). Further, the GI50 is 22.8 µM (inactive) in assay [13]; 56.9 µM in assay [14]; > 100 µM (inactive) in assay [15]; > 100 µM (inactive) in assay [16]; > 100 µM (inactive) in [17]; 72.3 µM (inactive) in assay [18]. The GI50 in [19] and in assay [20] was > 100 µM (inactive) in each case.
Regarding `COc1ccc(NC(=S)c2ccc([N+](=O)[O-])o2)cc1`, the GI50 in [1] is 15.6 µM (inactive); in assay [2] it was 0.386 µM (active); in [3] it was 2.72 µM (inactive); in assay [4] it was 1.12 µM (inactive); in assay [5], 1.32 µM (inactive); in assay [6], 2.01 µM (inactive). Besides, the GI50 is 1.62 µM (inactive) in [7]; 2.18 µM (inactive) in assay [8]; 3.18 µM (inactive) in assay [9]; 3.22 µM (inactive) in [10]; 2.48 µM (inactive) in [11]; 12.3 µM (inactive) in assay [12]. In addition, the GI50 in [13] is 3.01 µM (inactive); in assay [14] it was 0.895 µM; in assay [15] it was 7.8 µM (inactive); in [16] it was 2.33 µM (inactive); in assay [17], 3.02 µM (inactive); in assay [18], 1.52 µM (inactive). In addition, the GI50 was 1.82 µM (inactive) in assay [19] and 3.19 µM (inactive) in assay [20].
